Legend:
Type in all cases: cell-based
EGFR (Del19/T790M/C797S) [1] = assay: Cell degradation HTRF assay, BaF3-DTC cells; conditions: 16 h treatment; for DC50: HTRF; for DTC Dmax (%): maximum percentage of degradation
Experimental: (§1) Cell Degradation of Example 1-28
(§2) BaF3-LTC (L858R/T790M/C797S) and BaF3-DTC (Del19/T790M/C797S) cells are treated with compounds diluted in 0.2% DMSO cell culture medium and incubate for 16 h, 37° C., 5% CO2. The final concentration of compounds in all assay is start with 10 uM, 4-fold dilution, total 8 doses were included.
(§3) After 16 h treatment, add HTRF lysis buffer to each well; seal the plate and incubate 1 hour at room temperature on a plate shaker; Once the cells are lysed, 16 μL of cell lysate are transferred to a PE 384-well HTRF detection plate; 4 μL of pre-mixed HTRF antibodies are added to each well; Cover the plate with a plate sealer, spin 1000 rpm for 1 min, Incubate overnight at room temperature; Read on BMG PheraStar with HTRF protocol (337 nm-665 nm-620 nm). The inhibition (degradation) percentage of the compound was calculated by the following equation:
(§4) Inhibition percentage of Compound=100−100×(Signal−low control)/(High control−low control), wherein signal=each test compound group.
(§5) High control=Cell group with added DMSO and without compound, indicating microplate readings without EGFR degradation;
(§6) Dmax is the maximum percentage of inhibition (degradation).
(§7) The IC50 (DC50) value of a compound can be obtained by fitting the following equation
(§8) Y=Bottom+(TOP−Bottom)/(1+((C50/X)^hillslope))
(§9) Wherein, X and Y are known values, and IC50, Hillslope, Top and Bottom are the parameters obtained by fitting with software. Y is the inhibition percentage (calculated from the equation), X is the concentration of the compound; IC50 is the concentration of the compound when the 50% inhibition is reached. The smaller the IC50 value is, the stronger the inhibitory ability of the compound is. Vice versa, the higher the IC50 value is, the weaker the ability the inhibitory ability of the compound is; Hillslope represents the slope of the fitted curve, generally around 1*; Bottom represents the minimum value of the curve obtained by data fitting, which is generally 000±20%; Top represents the maximum value of the curve obtained by data fitting, which is generally 100%±20%. The experimental data were fitted by calculating and analyzing with Dotmatics data analysis software. When Dmax<50%, DC50 will be automatically assigned as larger than […].

EGFR (L858R/T790M/C797S) = EGFR (L858R/T790M/C797S) (Homo sapiens, UniProt P00533, C797S/L858R/T790M); assay: Cell degradation HTRF assay, BaF3-LTC cells; set-up: expressed in transfected cells; host or cells: BaF3-LTC; conditions: 16 h treatment; for DC50: HTRF; for Dmax: maximum percentage of degradation
Experimental: as §1, §2, §3, §4, §5, §6, §7, §8, §9

EGFR (Del19/T790M/C797S) [2] = assay: Cell degradation HTRF assay, H1975-clone #28 cells; conditions: H1975-clone #28 (Del19/T790M/C797S) cells, 16 h treatment; for DC50: HTRF, read-out: H1975-clone#28 DTC DC50; for H1975-clone#28 DTC Dmax (%): maximum percentage of degradation
In short: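 H1975 clones #25 and #28 were treated 16 h at 37° C, 5% CO2 with 8 doses (top 10 uM, 5-fold dilution) in 0.2% DMSO medium. EGFR in lysates read by HTRF (665/620 nm); degradation % relative to DMSO high control; DC50 from 4-parameter fit, Dmax = maximal degradation.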

Chain of EGFR (L858R/T790M/C797S) (P00533 25-1210 T790M/C797S/L858R): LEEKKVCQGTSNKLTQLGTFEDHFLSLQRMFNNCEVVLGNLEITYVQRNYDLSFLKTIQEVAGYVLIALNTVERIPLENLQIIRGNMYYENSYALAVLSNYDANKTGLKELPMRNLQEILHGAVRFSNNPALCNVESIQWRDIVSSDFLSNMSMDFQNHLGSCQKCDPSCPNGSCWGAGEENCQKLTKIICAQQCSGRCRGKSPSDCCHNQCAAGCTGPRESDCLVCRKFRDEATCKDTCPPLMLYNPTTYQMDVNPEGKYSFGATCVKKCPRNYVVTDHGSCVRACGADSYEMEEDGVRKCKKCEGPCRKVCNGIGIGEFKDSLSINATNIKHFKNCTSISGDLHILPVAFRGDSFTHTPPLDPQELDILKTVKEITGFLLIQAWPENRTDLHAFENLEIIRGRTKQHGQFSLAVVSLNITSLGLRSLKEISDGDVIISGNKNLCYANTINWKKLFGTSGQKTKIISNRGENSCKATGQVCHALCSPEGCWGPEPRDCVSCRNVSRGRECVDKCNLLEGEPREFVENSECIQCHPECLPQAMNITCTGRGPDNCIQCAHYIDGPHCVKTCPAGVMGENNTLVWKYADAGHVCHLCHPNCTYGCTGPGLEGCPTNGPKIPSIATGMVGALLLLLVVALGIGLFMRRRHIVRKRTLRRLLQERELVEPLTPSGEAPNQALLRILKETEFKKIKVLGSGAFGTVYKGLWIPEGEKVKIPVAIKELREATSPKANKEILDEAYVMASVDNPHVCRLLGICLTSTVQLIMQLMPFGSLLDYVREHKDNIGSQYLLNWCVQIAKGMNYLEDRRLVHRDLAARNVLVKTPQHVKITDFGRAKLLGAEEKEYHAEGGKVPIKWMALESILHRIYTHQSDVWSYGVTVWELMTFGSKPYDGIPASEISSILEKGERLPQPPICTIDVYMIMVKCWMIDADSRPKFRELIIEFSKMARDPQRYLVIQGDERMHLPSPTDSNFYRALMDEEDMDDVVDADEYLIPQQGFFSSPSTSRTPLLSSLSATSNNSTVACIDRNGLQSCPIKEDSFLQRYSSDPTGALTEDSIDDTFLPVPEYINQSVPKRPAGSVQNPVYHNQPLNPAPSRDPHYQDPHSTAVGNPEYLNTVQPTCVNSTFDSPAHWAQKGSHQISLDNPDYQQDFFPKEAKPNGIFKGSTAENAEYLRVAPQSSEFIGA

Compound	DC50 (EGFR (Del19/T790M/C797S) [1]) [nM]	DC50 (EGFR (L858R/T790M/C797S)) [nM]	Dmax (EGFR (L858R/T790M/C797S)) [%]	DC50 (EGFR (Del19/T790M/C797S) [2]) [nM]	DTC Dmax (%) (EGFR (Del19/T790M/C797S) [1])	H1975-clone#28 DTC Dmax (%) (EGFR (Del19/T790M/C797S) [2])
CCc1cc(Nc2ncc(Br)c(Nc3cnc4ccccc4c3P(C)(C)=O)n2)c(OC)cc1N1CCC(N2CCN(CCc3cccc4c3cnn4C3CCC(=O)NC3=O)CC2)CC1 (stereo not shown) [Example 12, 3-(4-(2-(4-(1-(4-((5-bromo-4-((4-(dimethylphosphoryl)quinolin-3-yl)amino)pyrimidin-2-yl)amino)-2-ethyl-5-methoxyphenyl)piperidin-4-yl)piperazin-1-yl)ethyl)-1H-indazol-1-yl)piperidine-2,6-dione]	14.4	68.8	89.1	–	91.82	–
CCc1cc(Nc2ncc(Br)c(Nc3cnc4c(C)cccc4c3P(C)(C)=O)n2)c(OC)cc1N1CCC(N2CCN(CCc3cc(F)c(C4CCC(=O)NC4=O)c(F)c3)CC2)CC1 (stereo not shown) [Example 10, 3-(4-(2-(4-(1-(4-((5-bromo-4-((4-(dimethylphosphoryl)-8-methylquinolin-3-yl)amino)pyrimidin-2-yl)amino)-2-ethyl-5-methoxyphenyl)piperidin-4-yl)piperazin-1-yl)ethyl)-2,6-difluorophenyl)piperidine-2,6-dione]	24.8	219	88.4	–	88.58	–
CCc1cc(Nc2ncc(Br)c(Nc3cnc4ccccc4c3P(C)(C)=O)n2)c(OC)cc1N1CCC(N2CCN(C(=O)C3CCN(c4ccc5c(c4)n(C)c(=O)n5C4CCC(=O)NC4=O)CC3)CC2)CC1 (stereo not shown) [Example 15, 3-(5-(4-(4-(1-(4-((5-bromo-4-((4-(dimethylphosphoryl)quinolin-3-yl)amino)pyrimidin-2-yl)amino)-2-ethyl-5-methoxyphenyl)piperidin-4-yl)piperazine-1-carbonyl)piperidin-1-yl)-3-methyl-2-oxo-2,3-dihydro-1H-benzo[d]imidazol-1-yl)piperidine-2,6-dione]	1.23	3.23	86.4	–	94.57	–
CCc1cc(Nc2ncc(Br)c(Nc3cnc4ccccc4c3P(C)(C)=O)n2)c(OC)cc1N1CCC(N2CCN(CCc3cccc4c3n(C)c(=O)n4C3CCC(=O)NC3=O)CC2)CC1 (stereo not shown) [Example 21, 3-(4-(2-(4-(1-(4-((5-bromo-4-((4-(dimethylphosphoryl)quinolin-3-yl)amino)pyrimidin-2-yl)amino)-2-ethyl-5-methoxyphenyl)piperidin-4-yl)piperazin-1-yl)ethyl)-3-methyl-2-oxo-2,3-dihydro-1H-benzo[d]imidazol-1-yl)piperidine-2,6-dione]	1.11	5.02	93.3	–	94.17	–
CCc1cc(Nc2ncc(Br)c(Nc3cnc4ccccc4c3P(C)(C)=O)n2)c(OC)cc1N1CCC(N2CCN(C(=O)C3CC4(CC(Nc5cc(F)c(C6CCC(=O)NC6=O)c(F)c5)C4)C3)CC2)CC1 (stereo not shown) [Example 23, 3-(4-((6-(4-(1-(4-((5-bromo-4-((4-(dimethylphosphoryl)quinolin-3-yl)amino)pyrimidin-2-yl)amino)-2-ethyl-5-methoxyphenyl)piperidin-4-yl)piperazine-1-carbonyl)spiro[3.3]heptan-2-yl)amino)-2,6-difluorophenyl)piperidine-2,6-dione]	2.22	11.1	88.6	–	94.5	–
CCc1cc(Nc2ncc(Br)c(Nc3cnc4ccccc4c3P(C)(C)=O)n2)c(OC)cc1N1CCC(N2CCN(CCc3ccc(C4CCC(=O)NC4=O)c(F)c3)CC2)CC1 (stereo not shown) [Example 2, 3-(4-(2-(4-(1-(4-((5-bromo-4-((4-(dimethylphosphoryl)quinolin-3-yl)amino)pyrimidin-2-yl)amino)-2-ethyl-5-methoxyphenyl)piperidin-4-yl)piperazin-1-yl)ethyl)-2-fluorophenyl)piperidine-2,6-dione]	18.5	146	85	–	86.75	–

Continued, in another order:

DC50 (EGFR (Del19/T790M/C797S) [1]) [nM]	DC50 (EGFR (L858R/T790M/C797S)) [nM]	Dmax (EGFR (L858R/T790M/C797S)) [%]	DC50 (EGFR (Del19/T790M/C797S) [2]) [nM]	Compound	DTC Dmax (%) (EGFR (Del19/T790M/C797S) [1])	H1975-clone#28 DTC Dmax (%) (EGFR (Del19/T790M/C797S) [2])
5.4	8.95	81.9	–	CCc1cc(Nc2ncc(Br)c(Nc3cnc4cnccc4c3P(C)(C)=O)n2)c(OC)cc1N1CCC(N2CCN(CCc3cc(F)c(C4CCC(=O)NC4=O)c(F)c3)CC2)CC1 (stereo not shown) [Example 28, 3-(4-(2-(4-(1-(4-((5-bromo-4-((4-(dimethylphosphoryl)-1,7-naphthyridin-3-yl)amino)pyrimidin-2-yl)amino)-2-ethyl-5-methoxyphenyl)piperidin-4-yl)piperazin-1-yl)ethyl)-2,6-difluorophenyl)piperidine-2,6-dione]	90.9	–
1.8	6.77	85	–	CCc1cc(Nc2ncc(Br)c(Nc3cnc4ccccc4c3P(C)(C)=O)n2)c(OC)cc1N1CCC(N2CCN(C(=O)C3CN(c4ccc5c(cnn5C5CCC(=O)NC5=O)c4)C3)CC2)CC1 (stereo not shown) [Example 25, 3-(5-(3-(4-(1-(4-((5-bromo-4-((4-(dimethylphosphoryl)quinolin-3-yl)amino)pyrimidin-2-yl)amino)-2-ethyl-5-methoxyphenyl)piperidin-4-yl)piperazine-1-carbonyl)azetidin-1-yl)-1H-indazol-1-yl)piperidine-2,6-dione]	88.68	–
–	–	–	2.6	CCc1cc(Nc2ncc(Br)c(Nc3cnc4ccccc4c3P(C)(C)=O)n2)c(OC)cc1N1CCC(N2CCN(C(=O)C3CC4(C3)CN(c3cc(F)c(C5CCC(=O)NC5=O)c(F)c3)C4)CC2)CC1 (stereo not shown) [Example 178, 3-(4-(6-(4-(1-(4-((5-bromo-4-((4-(dimethylphosphoryl)quinolin-3-yl)amino)pyrimidin-2-yl)amino)-2-ethyl-5-methoxyphenyl)piperidin-4-yl)piperazine-1-carbonyl)-2-azaspiro[3.3]heptan-2-yl)-2,6-difluorophenyl)piperidine-2,6-dione]	–	67
–	–	–	2.1	CCc1cc(Nc2ncc(Br)c(Nc3cnc4ccc(F)cc4c3P(C)(C)=O)n2)c(OC)cc1N1CCC(N2CCN(CCc3cccc4c3n(C)c(=O)n4C3CCC(=O)NC3=O)CC2)CC1 (stereo not shown) [Example 170, 3-(4-(2-(4-(1-(4-((5-bromo-4-((4-(dimethylphosphoryl)-6-fluoroquinolin-3-yl)amino)pyrimidin-2-yl)amino)-2-ethyl-5-methoxyphenyl)piperidin-4-yl)piperazin-1-yl)ethyl)-3-methyl-2-oxo-2,3-dihydro-1H-benzo[d]imidazol-1-yl)piperidine-2,6-dione]	–	82
–	–	–	2	CCc1cc(Nc2ncc(Br)c(Nc3cnc4ccccc4c3P(C)(C)=O)n2)c(OC)cc1N1CCC(N2CCN(CCc3cc(F)c(C4CCC(=O)NC4=O)c(F)c3F)CC2)CC1 (stereo not shown) [Example 180, 3-(4-(2-(4-(1-(4-((5-bromo-4-((4-(dimethylphosphoryl)quinolin-3-yl)amino)pyrimidin-2-yl)amino)-2-ethyl-5-methoxyphenyl)piperidin-4-yl)piperazin-1-yl)ethyl)-2,3,6-trifluorophenyl)piperidine-2,6-dione]	–	83
–	–	–	1	CCc1cc(Nc2ncc(Br)c(Nc3cnc4ccccc4c3P(C)(C)=O)n2)c(OC)cc1N1CCC(N2CCN(CCc3ccc(F)c4c3n(C)c(=O)n4C3CCC(=O)NC3=O)CC2)CC1 (stereo not shown) [Example 130, 3-(4-(2-(4-(1-(4-((5-bromo-4-((4-(dimethylphosphoryl)quinolin-3-yl)amino)pyrimidin-2-yl)amino)-2-ethyl-5-methoxyphenyl)piperidin-4-yl)piperazin-1-yl)ethyl)-7-fluoro-3-methyl-2-oxo-2,3-dihydro-1H-benzo[d]imidazol-1-yl)piperidine-2,6-dione]	–	86
